Consider 2 molecules from ChEMBL document CHEMBL2177025, “Chemical proteomics-based analysis of off-target binding profiles for rosiglitazone and pioglitazone: clues for assessing potential for cardiotoxicity” (J Med Chem, 2012).

Each structure is given as a SMILES string. Calls of active or inactive are those of the source. The calls are words filed in the database; no cut-off is given here.

In test [1] the target is Rab11 family-interacting protein 4 (Mus musculus) (UniProt Q8BQP8). As to the kind of experiment: Binding affinity to mouse Rab11 family interacting protein 4 by chromatographic analysis relative to pioglitazone.
For test [2], the target named is Cyclin-dependent kinase 7 (Mus musculus) (UniProt Q03147). In words: Binding affinity to mouse cell division protein kinase 7 by chromatographic analysis.
Test [3] deals with Septin-9 (Rattus norvegicus) (UniProt Q9QZR6). In words: Binding affinity to septin-9 in Sprague-Dawley rat heart homogenate after 15 mins by chromatographic analysis relative to pioglitazone. The format is tissue-based.
Test [4] has as its target T1, Dihydrolipoyl dehydrogenase, mitochondrial (Mus musculus) (UniProt O08749).
T1 sequence (whole entry): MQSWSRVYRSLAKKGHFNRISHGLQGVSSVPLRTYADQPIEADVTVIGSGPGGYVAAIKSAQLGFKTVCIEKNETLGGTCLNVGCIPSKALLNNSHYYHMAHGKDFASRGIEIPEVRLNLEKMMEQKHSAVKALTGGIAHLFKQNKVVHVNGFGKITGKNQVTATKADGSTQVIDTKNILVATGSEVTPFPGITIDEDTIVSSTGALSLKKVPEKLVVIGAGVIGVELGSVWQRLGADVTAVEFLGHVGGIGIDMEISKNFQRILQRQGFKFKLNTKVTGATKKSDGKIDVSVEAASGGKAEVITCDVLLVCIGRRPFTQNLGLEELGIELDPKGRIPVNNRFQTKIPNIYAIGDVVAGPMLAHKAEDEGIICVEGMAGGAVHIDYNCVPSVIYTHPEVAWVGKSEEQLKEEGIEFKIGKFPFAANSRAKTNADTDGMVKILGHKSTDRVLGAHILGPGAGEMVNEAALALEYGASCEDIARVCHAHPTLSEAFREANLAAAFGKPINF
As to the kind of experiment: Binding affinity to mouse mitochondrial dihydrolipoyl dehydrogenase by chromatographic analysis relative to rosiglitazone.

Test [5] addresses 26S proteasome non-ATPase regulatory subunit 1 (Rattus norvegicus) (UniProt O88761). In words: Binding affinity to 26S proteasome non-ATPase regulatory subunit 1 in Sprague-Dawley rat heart homogenate after 15 mins by chromatographic analysis. The format is tissue-based.
In test [6] the target is Multiple PDZ domain protein (Mus musculus) (UniProt Q8VBX6). As to the kind of experiment: Binding affinity to mouse multiple PDZ domain protein by chromatographic analysis.
Sequence of Multiple PDZ domain protein (Mus musculus) (Q8VBX6 whole entry, the tested form may be a part): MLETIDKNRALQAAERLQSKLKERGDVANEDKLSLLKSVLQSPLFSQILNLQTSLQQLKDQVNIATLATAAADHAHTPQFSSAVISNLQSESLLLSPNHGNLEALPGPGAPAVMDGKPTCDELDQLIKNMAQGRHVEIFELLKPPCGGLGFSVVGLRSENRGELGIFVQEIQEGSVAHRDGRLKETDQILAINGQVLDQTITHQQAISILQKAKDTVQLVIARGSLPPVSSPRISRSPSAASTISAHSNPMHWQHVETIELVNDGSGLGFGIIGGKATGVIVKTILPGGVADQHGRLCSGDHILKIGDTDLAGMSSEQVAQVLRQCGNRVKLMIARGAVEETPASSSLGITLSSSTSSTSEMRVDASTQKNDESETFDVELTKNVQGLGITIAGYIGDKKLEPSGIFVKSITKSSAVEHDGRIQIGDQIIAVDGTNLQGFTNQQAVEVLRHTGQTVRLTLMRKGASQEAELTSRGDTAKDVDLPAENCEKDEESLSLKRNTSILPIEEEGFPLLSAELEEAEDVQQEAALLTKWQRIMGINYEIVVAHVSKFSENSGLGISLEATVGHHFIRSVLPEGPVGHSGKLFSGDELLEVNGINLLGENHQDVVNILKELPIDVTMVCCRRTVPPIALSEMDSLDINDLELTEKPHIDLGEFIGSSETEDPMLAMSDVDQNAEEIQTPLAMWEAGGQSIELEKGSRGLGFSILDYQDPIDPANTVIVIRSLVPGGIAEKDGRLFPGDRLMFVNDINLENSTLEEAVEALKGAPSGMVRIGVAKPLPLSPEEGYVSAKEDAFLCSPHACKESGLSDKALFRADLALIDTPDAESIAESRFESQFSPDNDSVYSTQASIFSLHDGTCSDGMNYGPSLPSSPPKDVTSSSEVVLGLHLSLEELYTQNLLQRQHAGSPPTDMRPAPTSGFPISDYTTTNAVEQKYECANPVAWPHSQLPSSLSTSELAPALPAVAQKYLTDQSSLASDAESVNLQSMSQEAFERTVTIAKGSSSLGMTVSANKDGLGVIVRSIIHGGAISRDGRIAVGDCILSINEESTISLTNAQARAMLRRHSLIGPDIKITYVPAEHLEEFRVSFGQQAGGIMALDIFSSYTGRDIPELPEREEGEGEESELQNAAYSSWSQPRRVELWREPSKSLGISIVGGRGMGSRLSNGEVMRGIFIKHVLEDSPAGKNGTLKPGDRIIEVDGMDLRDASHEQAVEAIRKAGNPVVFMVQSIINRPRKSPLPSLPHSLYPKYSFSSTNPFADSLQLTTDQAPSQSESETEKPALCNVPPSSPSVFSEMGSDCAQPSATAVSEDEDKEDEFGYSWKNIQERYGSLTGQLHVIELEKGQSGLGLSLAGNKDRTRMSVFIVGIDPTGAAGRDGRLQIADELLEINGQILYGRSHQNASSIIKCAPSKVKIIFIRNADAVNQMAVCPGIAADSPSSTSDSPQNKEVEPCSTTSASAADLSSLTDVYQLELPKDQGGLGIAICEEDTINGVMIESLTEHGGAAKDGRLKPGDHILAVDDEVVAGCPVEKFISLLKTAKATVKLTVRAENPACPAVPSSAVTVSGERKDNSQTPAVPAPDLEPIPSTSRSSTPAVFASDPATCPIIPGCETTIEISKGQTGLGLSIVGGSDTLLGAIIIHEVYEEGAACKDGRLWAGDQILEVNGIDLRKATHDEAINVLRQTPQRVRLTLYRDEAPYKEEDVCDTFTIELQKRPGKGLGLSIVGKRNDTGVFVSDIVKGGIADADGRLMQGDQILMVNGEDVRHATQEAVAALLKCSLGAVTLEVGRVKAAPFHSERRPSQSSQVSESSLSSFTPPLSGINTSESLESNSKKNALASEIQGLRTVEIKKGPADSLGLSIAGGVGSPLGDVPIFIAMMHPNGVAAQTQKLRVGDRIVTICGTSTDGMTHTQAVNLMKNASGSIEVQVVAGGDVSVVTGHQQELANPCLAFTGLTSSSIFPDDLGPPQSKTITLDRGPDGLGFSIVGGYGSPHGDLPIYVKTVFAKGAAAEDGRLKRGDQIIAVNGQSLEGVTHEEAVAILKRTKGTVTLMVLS
The target of test [7] is Prolactin-3B1 (Rattus norvegicus) (UniProt P09321). In words: Binding affinity to chorionic somatomammotropin hormone 2 precursor in Sprague-Dawley rat heart homogenate after 15 mins by chromatographic analysis relative to pioglitazone. The class given is tissue-based.
Test [8] deals with Fanconi anemia group M protein homolog (Mus musculus) (UniProt Q8BGE5). In words: Binding affinity to mouse Fanconi anemia group M protein homologue by chromatographic analysis relative to pioglitazone.
In test [9] the target is Hepatocyte nuclear factor 6 (Mus musculus) (UniProt O08755). In words: Binding affinity to mouse hepatocyte nuclear factor 6 by chromatographic analysis.
In test [10] the target is Glyceraldehyde-3-phosphate dehydrogenase (Rattus norvegicus) (UniProt P04797). In words: Binding affinity to glyceraldehyde 3-phosphate dehydrogenase in Sprague-Dawley rat heart homogenate after 15 mins by chromatographic analysis. The format is tissue-based.
Sequence of Glyceraldehyde-3-phosphate dehydrogenase (Rattus norvegicus) (P04797 whole entry): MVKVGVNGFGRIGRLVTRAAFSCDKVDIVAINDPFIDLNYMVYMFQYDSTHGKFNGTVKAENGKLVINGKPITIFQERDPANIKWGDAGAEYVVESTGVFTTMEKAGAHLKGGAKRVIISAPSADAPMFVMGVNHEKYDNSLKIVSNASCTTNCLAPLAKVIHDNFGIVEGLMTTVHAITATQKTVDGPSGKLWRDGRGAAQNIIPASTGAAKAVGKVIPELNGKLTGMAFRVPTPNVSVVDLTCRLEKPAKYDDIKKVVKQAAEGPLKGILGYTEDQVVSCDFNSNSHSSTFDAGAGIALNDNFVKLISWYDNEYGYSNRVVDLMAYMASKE
The target of test [11] is T2, Cardiotrophin-like cytokine factor 1 (Mus musculus) (UniProt Q9QZM3).
T2 sequence (whole entry): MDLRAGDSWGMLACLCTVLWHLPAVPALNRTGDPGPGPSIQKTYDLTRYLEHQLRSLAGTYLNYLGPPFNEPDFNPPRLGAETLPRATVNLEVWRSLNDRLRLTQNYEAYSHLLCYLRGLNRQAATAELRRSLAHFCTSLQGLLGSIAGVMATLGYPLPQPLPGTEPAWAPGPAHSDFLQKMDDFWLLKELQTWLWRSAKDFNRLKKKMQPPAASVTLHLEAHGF
In words: Binding affinity to mouse cardiotrophin-like cytokine factor 1 precursor by chromatographic analysis relative to pioglitazone.

For test [12], the target named is Selenocysteine insertion sequence-binding protein 2 (Rattus norvegicus) (UniProt Q9QX72). As to the kind of experiment: Binding affinity to SECIS-binding protein 2 in Sprague-Dawley rat heart homogenate after 15 mins by chromatographic analysis relative to pioglitazone. The class given is tissue-based.
Test [13] has as its target Malate dehydrogenase, mitochondrial (Rattus norvegicus) (UniProt P04636). As to the kind of experiment: Binding affinity to mitochondrial malate dehydrogenase in Sprague-Dawley rat heart homogenate after 15 mins by chromatographic analysis. The class given is tissue-based.
Test [14] has as its target Kinesin light chain 1 (Rattus norvegicus) (UniProt P37285). In words: Binding affinity to Kinesin light chain 1 in Sprague-Dawley rat heart homogenate after 15 mins by chromatographic analysis. The format is tissue-based.
Test [15] deals with Malate dehydrogenase, cytoplasmic (Mus musculus) (UniProt P14152). As to the kind of experiment: Binding affinity to mouse cytoplasmic malate dehydrogenase by chromatographic analysis.
Test [16] deals with PX domain-containing protein kinase-like protein (Rattus norvegicus) (UniProt Q4FZZ1). In words: Binding affinity to PX domain-containing protein kinase-like protein in Sprague-Dawley rat heart homogenate after 15 mins by chromatographic analysis relative to pioglitazone. The class given is tissue-based.
Sequence of PX domain-containing protein kinase-like protein (Rattus norvegicus) (Q4FZZ1 whole entry, the tested form may be a part): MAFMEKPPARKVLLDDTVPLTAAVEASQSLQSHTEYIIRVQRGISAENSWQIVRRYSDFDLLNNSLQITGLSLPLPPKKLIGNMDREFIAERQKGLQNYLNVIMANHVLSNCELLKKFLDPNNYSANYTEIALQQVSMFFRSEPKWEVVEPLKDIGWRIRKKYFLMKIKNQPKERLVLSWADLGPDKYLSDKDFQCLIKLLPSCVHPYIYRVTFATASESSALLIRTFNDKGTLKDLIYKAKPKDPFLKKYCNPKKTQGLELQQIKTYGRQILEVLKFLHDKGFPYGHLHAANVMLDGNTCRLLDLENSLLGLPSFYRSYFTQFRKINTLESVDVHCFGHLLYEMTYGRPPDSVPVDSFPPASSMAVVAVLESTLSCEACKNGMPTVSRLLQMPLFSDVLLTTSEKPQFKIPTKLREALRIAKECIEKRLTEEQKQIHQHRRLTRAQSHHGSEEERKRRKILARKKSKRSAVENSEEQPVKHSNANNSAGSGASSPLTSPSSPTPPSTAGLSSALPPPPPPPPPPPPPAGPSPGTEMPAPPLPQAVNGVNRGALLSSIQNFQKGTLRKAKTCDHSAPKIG
Test [17] deals with Interleukin-12 subunit beta (Mus musculus) (UniProt P43432). As to the kind of experiment: Binding affinity to mouse interleukin-12 beta chain precursor by chromatographic analysis.
In test [18] the target is Aspartate aminotransferase, mitochondrial (Rattus norvegicus) (UniProt P00507). As to the kind of experiment: Binding affinity to mitochondrial aspartate aminotransferase in Sprague-Dawley rat heart homogenate after 15 mins by chromatographic analysis. The format is tissue-based.
The target of test [19] is Triosephosphate isomerase (Rattus norvegicus) (UniProt P48500). As to the kind of experiment: Binding affinity to triosephosphate isomerase in Sprague-Dawley rat heart homogenate after 15 mins by chromatographic analysis relative to rosiglitazone. The class given is tissue-based.
Sequence of Triosephosphate isomerase (Rattus norvegicus) (P48500 whole entry): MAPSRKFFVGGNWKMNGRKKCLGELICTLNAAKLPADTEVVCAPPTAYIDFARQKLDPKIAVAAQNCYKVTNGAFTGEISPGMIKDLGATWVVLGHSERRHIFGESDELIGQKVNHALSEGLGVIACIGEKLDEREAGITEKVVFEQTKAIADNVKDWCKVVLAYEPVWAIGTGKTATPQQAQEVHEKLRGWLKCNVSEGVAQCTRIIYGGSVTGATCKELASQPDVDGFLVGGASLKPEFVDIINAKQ
The target of test [20] is 2-oxoglutarate dehydrogenase complex component E1 (Mus musculus) (UniProt Q60597). In words: Binding affinity to mouse mitochondrial 2-oxoglutarate dehydrogenase E1 component by chromatographic analysis.
Test [21] has as its target Cyclic AMP-dependent transcription factor ATF-2 (Mus musculus) (UniProt P16951). In words: Binding affinity to mouse cyclic AMP-dependent transcription factor ATF-2 by chromatographic analysis.
The target of test [22] is Creatine kinase B-type (Rattus norvegicus) (UniProt P07335). As to the kind of experiment: Binding affinity to creatine kinase B-type in Sprague-Dawley rat heart homogenate after 15 mins by chromatographic analysis. The format is tissue-based.
In test [23] the target is Creatine kinase M-type (Rattus norvegicus) (UniProt P00564). In words: Binding affinity to creatine kinase M-type in Sprague-Dawley rat heart homogenate after 15 mins by chromatographic analysis relative to rosiglitazone. The class given is tissue-based.
Test [24] addresses Phosphoglycerate kinase 1 (Rattus norvegicus) (UniProt P16617). In words: Binding affinity to Phosphoglycerate kinase 1 in Sprague-Dawley rat heart homogenate after 15 mins by chromatographic analysis. The format is tissue-based.
Test [25] deals with Trace amine-associated receptor 7b (Rattus norvegicus) (UniProt Q923X8). In words: Binding affinity to trace amine-associated receptor 7b in Sprague-Dawley rat heart homogenate after 15 mins by chromatographic analysis. The format is tissue-based.
Test [26] deals with Citrate synthase, mitochondrial (Mus musculus) (UniProt Q9CZU6). In words: Binding affinity to mouse mitochondrial citrate synthase by chromatographic analysis relative to rosiglitazone.
Test [27] concerns the target Hemopexin (Rattus norvegicus) (UniProt P20059). As to the kind of experiment: Binding affinity to hemopexin precursor in Sprague-Dawley rat heart homogenate after 15 mins by chromatographic analysis. The format is tissue-based.

Sequence of 26S proteasome non-ATPase regulatory subunit 1 (Rattus norvegicus) (O88761 whole entry, the tested form may be a part): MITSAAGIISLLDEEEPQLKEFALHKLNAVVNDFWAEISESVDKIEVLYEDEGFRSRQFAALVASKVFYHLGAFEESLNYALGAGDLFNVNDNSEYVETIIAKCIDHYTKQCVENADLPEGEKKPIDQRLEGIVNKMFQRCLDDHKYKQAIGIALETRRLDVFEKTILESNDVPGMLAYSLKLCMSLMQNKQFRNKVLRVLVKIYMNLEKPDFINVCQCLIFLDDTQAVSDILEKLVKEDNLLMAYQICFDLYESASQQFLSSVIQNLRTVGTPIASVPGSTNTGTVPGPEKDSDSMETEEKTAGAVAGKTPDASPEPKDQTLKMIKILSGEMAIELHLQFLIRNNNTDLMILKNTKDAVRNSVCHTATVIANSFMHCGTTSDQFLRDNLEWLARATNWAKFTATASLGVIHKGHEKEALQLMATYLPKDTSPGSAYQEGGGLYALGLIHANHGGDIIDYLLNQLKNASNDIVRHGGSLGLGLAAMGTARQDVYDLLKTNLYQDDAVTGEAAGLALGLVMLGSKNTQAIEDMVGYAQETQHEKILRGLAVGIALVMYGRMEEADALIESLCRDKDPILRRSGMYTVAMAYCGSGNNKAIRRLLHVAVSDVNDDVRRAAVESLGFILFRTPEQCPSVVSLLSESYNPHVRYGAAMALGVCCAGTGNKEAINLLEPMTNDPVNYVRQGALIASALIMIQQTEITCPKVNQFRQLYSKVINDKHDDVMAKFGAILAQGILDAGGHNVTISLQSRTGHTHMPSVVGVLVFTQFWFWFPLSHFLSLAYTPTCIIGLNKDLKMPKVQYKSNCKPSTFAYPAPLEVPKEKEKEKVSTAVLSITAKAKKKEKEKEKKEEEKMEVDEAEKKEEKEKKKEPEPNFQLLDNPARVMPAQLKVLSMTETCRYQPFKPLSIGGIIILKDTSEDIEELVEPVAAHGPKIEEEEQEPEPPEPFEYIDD
Sequence of Cyclic AMP-dependent transcription factor ATF-2 (Mus musculus) (P16951 whole entry): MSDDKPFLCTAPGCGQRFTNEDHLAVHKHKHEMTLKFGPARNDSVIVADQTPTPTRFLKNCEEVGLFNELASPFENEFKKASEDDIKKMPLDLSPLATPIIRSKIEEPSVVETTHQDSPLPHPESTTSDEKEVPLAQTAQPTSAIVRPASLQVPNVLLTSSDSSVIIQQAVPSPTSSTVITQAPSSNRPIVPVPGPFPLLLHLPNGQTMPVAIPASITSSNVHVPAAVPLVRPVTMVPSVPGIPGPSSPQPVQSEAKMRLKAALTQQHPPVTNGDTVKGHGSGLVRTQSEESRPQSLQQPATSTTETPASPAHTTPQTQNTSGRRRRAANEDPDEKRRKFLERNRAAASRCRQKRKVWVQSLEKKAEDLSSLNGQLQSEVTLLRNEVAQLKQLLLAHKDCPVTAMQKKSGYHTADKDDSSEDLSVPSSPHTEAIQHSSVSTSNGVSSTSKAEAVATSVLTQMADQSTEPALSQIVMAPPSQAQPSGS
Sequence of Malate dehydrogenase, mitochondrial (Rattus norvegicus) (P04636 whole entry): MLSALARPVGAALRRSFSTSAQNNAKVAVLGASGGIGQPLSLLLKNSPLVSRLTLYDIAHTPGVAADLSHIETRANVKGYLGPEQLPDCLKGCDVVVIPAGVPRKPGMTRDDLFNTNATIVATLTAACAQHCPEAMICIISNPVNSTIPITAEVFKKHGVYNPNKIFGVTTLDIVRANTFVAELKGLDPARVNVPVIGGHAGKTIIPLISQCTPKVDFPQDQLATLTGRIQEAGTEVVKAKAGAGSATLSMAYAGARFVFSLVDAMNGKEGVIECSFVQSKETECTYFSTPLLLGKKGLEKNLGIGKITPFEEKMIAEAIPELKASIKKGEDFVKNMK

For `CN(CCOc1ccc(CC2SC(=O)NC2=O)cc1)c1ccccn1` (stereo not drawn), the fold change (FC) in test [1] was 3.74; in [3], 2.08; in test [7], 3.92; in [8], 2.94; in test [11], 2.56; in [12], 3.22. For the same molecule, in test [16], the fold change (FC) turned out to be 2.64. Besides, the result in [2], in [4], in [5], in test [6], in test [9] and in [10] was Active. The outcome in [13], in test [14] and in test [15] was Active.
As to `CCc1ccc(CCOc2ccc(CC3SC(=O)NC3=O)cc2)nc1` (stereo not drawn), the outcome in test [17], in test [4], in [5], in test [18], in [6] and in test [20] was Active. The result in test [10], in [22], in test [24], in test [25], in test [27] and in test [16] was Active. In addition, the fold change (FC) in test [4] worked out at 1.88; in [19], 6.46; in test [21], 1.64; in test [23] it was 6.16; in test [26], 5.52.
